Reference: patent publication US20130150376A1, “Novel Sultam Compounds” (PFIZER INC., priority 2010, published 2013)
Where a name gives a salt, the structure may show the parent alone. Read-outs that look alike come from different tables or passages of the source.

Molecular target: T1, BACE1 enzyme (soluble, truncated BACE enzyme, BACE1deltaTM96His) (Homo sapiens, UniProt P56817)
T1 construct: soluble, truncated BACE enzyme (BACE1deltaTM96His); His; made in house
Test: BACE1 Fluorescent Polarization (FP) Assay
Assay type: biochemical
Settings: geometric mean of 2-4 IC50 determinations unless footnoted (^2: 5-6 determinations; ^4: single determination)
Text: BACE1 Fluorescent Polarization (FP) Assay
The fluorescently tagged synthetic substrate, Biotin-GLTNIKTEEISEISŶEVEFR-C[oregon green]KK-OH can be efficiently cleaved by the beta-secretase enzyme and is therefore useful to assay beta-secretase activity in the presence or absence of inhibitory compounds. The his tagged BACE1 enzyme was affinity purified material from conditioned media of CHO-K1 cells that had been transfected to express soluble, truncated BACE enzyme (BACE1deltaTM96His). Compounds were incubated in a ½ log dose response (from a top concentration of 100 μM) with BACE1 enzyme (0.1 nM final) and the biotinylated fluorescent peptide substrate (150 nM final) in assay buffer containing 100 mM sodium acetate, pH 4.5 (brought to pH with acetic acid), and 0.001% Tween-20. Total reaction volumes of 30 μL were carried out in 384-well black plates (Thermo Scientific 4318). Plates were covered and incubated for 3 hours at 37° C. The reactions were then stopped by addition of 30 μL of 1.5 μM Streptavidin (Pierce, 21125). After a 10 minute incubation at room temperature, plates were read on a PerkinElmer Envision for fluorescence polarization (Ex485 nm/Em530 nm). The activity of the beta-secretase enzyme is detected by changes in the fluorescence polarization (Δ mP) that occur when the substrate is cleaved by the enzyme.

[1] = 8-point curve, read-out: BACE activity, 8-point curve, IC50
[2] = 11-point curve, read-out: BACE activity, 11-point curve, IC50

T1 sequence (P56817 46-457): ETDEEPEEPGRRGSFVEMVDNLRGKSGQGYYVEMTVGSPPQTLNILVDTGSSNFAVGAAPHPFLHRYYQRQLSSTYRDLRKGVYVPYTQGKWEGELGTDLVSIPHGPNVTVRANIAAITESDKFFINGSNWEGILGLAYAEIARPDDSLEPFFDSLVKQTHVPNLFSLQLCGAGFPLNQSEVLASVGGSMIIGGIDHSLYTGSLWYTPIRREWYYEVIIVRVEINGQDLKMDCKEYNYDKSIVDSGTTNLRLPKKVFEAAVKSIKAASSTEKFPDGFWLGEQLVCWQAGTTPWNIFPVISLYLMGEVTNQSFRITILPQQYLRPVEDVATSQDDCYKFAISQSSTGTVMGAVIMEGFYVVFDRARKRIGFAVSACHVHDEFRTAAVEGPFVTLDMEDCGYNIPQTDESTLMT

IC50 [1] [nM]	IC50 [2] [nM]	Structure (SMILES)
2290	4460	COc1ccc2[nH]c(CN3CC[C@]4(CCS(=O)(=O)N4c4cccc(F)c4)C[C@@H]3C)cc2c1 [Example 53, (5R,7S)-1-(3-fluorophenyl)-8-[(5-methoxy-1H-indol-2-yl)methyl]-7-methyl-2-thia-1,8-diazaspiro[4.5]decane 2,2-dioxide]
53.3	137	Cc1ccccc1-c1cccc(CN2CC[C@]3(C=CS(=O)(=O)N3c3cccc(F)c3)C[C@@H]2C)c1 [Example 54, (5R,7S)-1-(3-fluorophenyl)-7-methyl-8-[(2′-methylbiphenyl-3-yl)methyl]-2-thia-1,8-diazaspiro[4.5]dec-3-ene 2,2-dioxide]
392	1020	Cc1ccncc1-c1cccc(CN2CC[C@]3(CCS(=O)(=O)N3c3cccc(F)c3)C[C@@H]2C)c1 [Example 55, (5R,7S)-1-(3-fluorophenyl)-7-methyl-8-[3-(4-methy|pyridin-3-yl)benzyl]-2-thia-1,8-diazaspiro[4.5]decane 2,2-dioxide, hydrochloride salt]
–	15400	C[C@H]1C[C@]2(CCN1Cc1ncoc1-c1cccs1)CCS(=O)(=O)N2c1cccc(F)c1 [Example 56, (5R,7S)-1-(3-fluorophenyl)-7-methyl-8-{[5-(2-thienyl)-1,3-oxazol-4-yl]methyl}-2-thia-1,8-diazaspiro[4.5]decane 2,2-dioxide, hydrochloride salt]
–	4080	Cc1cncc(-c2ocnc2CN2CC[C@]3(CCS(=O)(=O)N3c3cccc(F)c3)C[C@@H]2C)c1 [Example 57, (5R,7S)-1-(3-fluorophenyl)-7-methyl-8-{[5-(5-methylpyridin-3-yl)-1,3-oxazol-4-yl]methyl}-2-thia-1,8-diazaspiro[4.5]decane 2,2-dioxide, hydrochloride salt]
–	6530	Cc1ccsc1-c1ocnc1CN1CC[C@]2(CCS(=O)(=O)N2c2cccc(F)c2)C[C@@H]1C [Example 58, (5R,7S)-1-(3-fluorophenyl)-7-methyl-8-{[5-(3-methyl-2-thienyl)-1,3-oxazol-4-yl]methyl}-2-thia-1,8-diazaspiro[4.5]decane 2,2-dioxide, hydrochloride salt]
–	8820	Cc1ncsc1-c1ocnc1CN1CC[C@]2(CCS(=O)(=O)N2c2cccc(F)c2)C[C@@H]1C [Example 59, (5R,7S)-1-(3-fluorophenyl)-7-methyl-8-{[5-(4-methyl-1,3-thiazol-5-yl)-1,3-oxazol-4-yt]methyl}-2-thia-1,8-diazaspiro[4.5]decane 2,2-dioxide, hydrochloride salt]
–	6540	C[C@H]1C[C@]2(CCN1Cc1ncoc1-c1cncs1)CCS(=O)(=O)N2c1cccc(F)c1 [Example 60, (5R,7S)-1-(3-fluorophenyl)-7-methyl-8-{[5-(1,3-thiazol-5-yl)-1,3-oxazol-4-yl]methyl}-2-thia-1,8-diazaspiro[4.5]decane 2,2-dioxide, hydrochloride salt]
19	33.3	Cc1ccccc1-c1cc(CN2CC[C@]3(CCS(=O)(=O)N3c3cccc(F)c3)C[C@@H]2C)ccc1O [Example 62, 5-{[(5R,7S)-1-(3-fluorophenyl)-7-methyl-2,2-dioxido-2-thia-1,8-diazaspiro[4.5]dec-8-yl]methyl-2′-methylbiphenyl-2-ol, hydrochloride salt]
5820	–	COC1=CS(=O)(=O)N(c2cccc(F)c2)[C@@]12CCN(Cc1cccc(OC(C)C)c1)[C@@H](C)C2 [Example 63, (5R,7S)-1-(3-fluorophenyl)-8-(3-isopropoxybenzyl)-4-methoxy-7-methyl-2-thia-1,8-diazaspiro[4.5]dec-3-ene 2,2-dioxide]
–	25700	CC(C)Oc1cccc(CN2CC[C@@]3(C[C@@H]2C)C(=O)C(C)(C)S(=O)(=O)N3c2cccc(F)c2)c1 [Example 64, (5R,7S)-1-(3-fluorophenyl)-8-(3-isopropoxybenzyl)-3,3,7-trimethyl-2-thia-1,8-diazaspiro[4.5]decan-4-one 2,2-dioxide, hydrochloride salt]
–	3160	CC(C)Oc1cccc(CN2CC[C@@]3(C[C@@H]2C)C(O)CS(=O)(=O)N3c2cccc(F)c2)c1 (stereo partly drawn) [Example 65, (5R,7S)-1-(3-fluorophenyl)-8-(3-isopropoxybenzyl)-7-methyl-2-thia-1,8-diazaspiro[4.5]decan-4-ol 2,2-dioxide]
59.3	429	CC(C)Oc1cc(CN2CC[C@]3(C=CS(=O)(=O)N3c3ccc(F)c(F)c3)C[C@@H]2C)ccc1O [Example 67, 4-{[(5R,7S)-1-(3,4-difluorophenyl)-7-methyl-2,2-dioxido-2-thia-1,8-diazaspiro[4.5]dec-3-en-8-yl]methyl}-2-isopropoxyphenol]
1770	5790	CC(C)Oc1cccc(CN2CC[C@]3(C=CS(=O)(=O)N3c3ccc(F)c(F)c3)C[C@@H]2C)c1 [Example 68, (5R,7S)-1-(3,4-difluorophenyl)-8-(3-isopropoxybenzyl)-7-methyl-2-thia-1,8-diazaspiro[4.5]dec-3-ene 2,2-dioxide, hydrochloride salt]
2560	6810	C[C@H]1C[C@@]2(C=CS(=O)(=O)N2c2cccc(F)c2)CCN1Cc1ncoc1C1CCCO1 (stereo partly drawn) [Example 70, (5R,7S)-1-(3-fluorophenyl)-7-methyl-8-{[5-(tetrahydrofuran-2-yl)-1,3-oxazol-4-yl]methyl}-2-thia-1,8-diazaspiro[4.5]dec-3-ene 2,2-dioxide]
1290	2490	C[C@H]1C[C@@]2(C=CS(=O)(=O)N2c2cccc(F)c2)CCN1Cc1ncoc1C1CCOC1 (stereo partly drawn) [Example 71, (5R,7S)-1-(3-fluorophenyl)-7-methyl-8-{[5-(tetrahydrofuran-3-yl)-1,3-oxazol-4-yl]methyl}-2-thia-1,8-diazaspiro[4.5]dec-3-ene 2,2-dioxide]
0.97	24.3	Cc1csnc1-c1cc(CN2CC[C@]3(C=CS(=O)(=O)N3c3cccc(F)c3)C[C@@H]2C)ccc1O [Example 72, 4-{[(5R,7S)-1-(3-fluorophenyl)-7-methyl-2,2-dioxido-2-thia-1,8-diazaspiro[4.5]dec-3-en-8-yl]methyl}-2-(4-methyl-1,2-thiazol-3-yl)phenol, trifluoroacetic acid salt]
13.8	115	Cc1cccnc1-c1cc(CN2CC[C@]3(C=CS(=O)(=O)N3c3cccc(F)c3)C[C@@H]2C)ccc1O [Example 74, 4-{[(5R,7S)-1-(3-fluorophenyl)-7-methyl-2,2-dioxido-2-thia-1,8-diazaspiro[4.5]dec-3-en-8-yl]methyl}-2-(3-methylpyridin-2-yl)phenol]
–	41.8	C[C@H]1C[C@@]2(C=CS(=O)(=O)N2c2cccc(F)c2)CCN1Cc1ccc(O)c(C2CCC2)c1 [Example 75, 2-cyclobutyl-4-{[(5R,7S)-1-(3-fluorophenyl)-7-methyl-2,2-dioxido-2-thia-1,8-diazaspiro[4.5]dec-3-en-8-yl]methyl}phenol]
705	2970	Cc1ncccc1-c1ocnc1CN1CC[C@]2(C=CS(=O)(=O)N2c2cccc(F)c2)C[C@@H]1C [Example 76, (5R,7S)-1-(3-fluorophenyl)-7-methyl-8-{[5-(2-methylpyridin-3-yl)-1,3-oxazol-4-yl]methyl}-2-thia-1,8-diazaspiro[4.5]dec-3-ene 2,2-dioxide]
–	927	Cc1cccnc1-c1cccc(CN2CC[C@]3(C=CS(=O)(=O)N3c3cccc(F)c3)C[C@@H]2C)c1 [Example 77, (5R,7S)-1-(3-fluorophenyl)-7-methyl-8-[3-(3-methylpyridin-2-yl)benzyl]-2-thia-1,8-diazaspiro[4.5]dec-3-ene 2,2-dioxide, trifluoroacetic acid salt]
–	5650	Cc1cccnc1-c1cc(CN2CC[C@]3(C=CS(=O)(=O)N3c3cccc(F)c3)C[C@@H]2C)ccc1F [Example 78, (5R,7S)-8-[4-fluoro-3-(3-methylpyridin-2-yl)benzyl]-1-(3-fluorophenyl)-7-methyl-thia-1,8-diazaspiro[4.5]dec-3-ene 2,2-dioxide]
189	519	C[C@H]1C[C@@]2(C=CS(=O)(=O)N2c2cccc(F)c2)CCN1Cc1ncoc1C1CCCOC1 (stereo partly drawn) [Example 79, (5R,7S)-1-(3-fluorophenyl)-7-methyl-8-{[5-(tetrahydro-2H-pyran-3-yl)-1,3-oxazol-4-yl]methyl}-2-thia-1,8-diazaspiro[4.5]dec-3-ene 2,2-dioxide]
–	5720	CC(C)Oc1cccc(CN2CC[C@@]3(C[C@@H]2C)C(=O)CS(=O)(=O)N3c2cccc(F)c2)c1 [Example 81, (5R,7S)-1-(3-fluorophenyl)-8-(3-isopropoxybenzyl)-7-methyl-2-thia-1,8-diazaspiro[4.5]decan-4-one 2,2-dioxide]

Structure (SMILES)	IC50 [1] [nM]	IC50 [2] [nM]
Cc1scnc1-c1cc(CN2CC[C@]3(C=CS(=O)(=O)N3c3cccc(F)c3)C[C@@H]2C)ccc1O [Example 73, 4-{[(5R,7S)-1-(3-fluorophenyl)-7-methyl-2,2-dioxido-2-thia-1,8-diazaspiro[4.5]dec-3-en-8-yl]methyl}-2-(5-methyl-1,3-thiazol-4-yl)phenol, ammonium sail]	2.44	44.5
